A word on the IC50: it is the concentration at which inhibition is half-maximal. Low readings indicate greater potency in that assay, high ones weaker potency in that assay.

Positions of bridges follow the written chain, without caps; N, C: chain ends. Non-standard residues stand in square brackets, D forms with d. Residues, ends and D or L forms follow the SMILES beside them. Tyr(3-Cl) = N[C@@H](Cc1ccc(O)c(Cl)c1)C(=O)O

T1 sequence (Q92743 23-480): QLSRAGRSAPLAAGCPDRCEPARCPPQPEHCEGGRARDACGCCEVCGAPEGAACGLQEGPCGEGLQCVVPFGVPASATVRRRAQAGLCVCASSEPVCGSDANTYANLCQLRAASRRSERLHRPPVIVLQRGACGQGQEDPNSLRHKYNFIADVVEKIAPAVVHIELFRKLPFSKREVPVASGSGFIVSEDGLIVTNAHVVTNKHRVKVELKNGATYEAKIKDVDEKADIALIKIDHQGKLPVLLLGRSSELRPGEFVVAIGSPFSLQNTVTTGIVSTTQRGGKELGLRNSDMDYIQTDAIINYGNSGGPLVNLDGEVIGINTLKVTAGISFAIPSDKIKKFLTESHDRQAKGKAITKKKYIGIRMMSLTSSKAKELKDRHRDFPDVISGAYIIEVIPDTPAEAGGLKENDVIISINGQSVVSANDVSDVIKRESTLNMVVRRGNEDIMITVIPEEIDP

This experiment addresses T1, HTRA1^FL (Homo sapiens, UniProt Q92743).
T1 construct: Human full-length HTRA1 (HTRA1^FL, Q23-P480); made in house; host or cells: Trichoplusia ni cells
Description: HTRA1^FL enzyme inhibition assay with synthetic substrate H2-OPT. The class given is biochemical. As for the experimental part: Assays with the fluorescence-quenched synthetic substrate Mca-IRRVSYSFK(Dnp)K (H2-OPT)[38],[60] were carried out essentially as described. CKP stock solutions in DMSO were diluted in TNC buffer (dilution series for IC50 determinations, or final concentration of 2 µM for selectivity assay or as indicated for HTRA1/4 mutants) and incubated with enzymes in 96-well black optical bottom plates for 60 min at 37 °C. For selectivity experiments we used the 7mer-ABP as inhibitor, which was incubated with the proteases for 15 min at 37 °C. A 10 mM stock solution of H2-OPT in DMSO was diluted with water, prewarmed at 37 °C and then added to the CKP-enzyme mixtures. The final concentrations in the reaction mixtures were: 1 nM HTRA1^FL, 3 nM HTRA1^PD/PDZ, 1 nM HTRA1^PD, 1 nM HTRA2^PD/PDZ, 3 nM HTRA3^FL, 60 nM HTRA3^PD/PDZ, 6 nM HTRA4^FL, 1 µM HTRA4^PD/PDZ, 1 nM mouse HTRA1^PD, 25 nM HTRA1^PD-A202Y, 1 µM HTRA4^PD/PDZ-Y200A, 0.5 mM 7mer-ABP, 5 µM H2-OPT, and 0.25% DMSO. The kinetics of substrate cleavage was measured at 37 °C on a SpectraMax M5 microplate reader with excitation of 328 nm and emission of 393 nm. The determined initial rates of cleavage were expressed as percent of control (DMSO control) after subtracting the baseline rates (without enzyme). IC50 values were determined by Sigmoidal 4PL modeling of multiple data points from serial dilutions of CKPs using Prism 9 software (GraphPad). For selectivity assays with HTRA1-4^PD/PDZ constructs, the specific activities of the enzymes and enzyme:CKP inhibitor ratios were as follows: HTRA1^PD/PDZ, 12560 mRFU/min/nM – 1:667; HTRA2^PD/PDZ, 32300 mRFU/min/nM – 1:2000; HTRA3^PD/PDZ, 962 mRFU/min/nM – 1:33; HTRA4^PD/PDZ, 18 mRFU/min/nM – 1:2.
`CC[C@H](C)[C@H](NC(=O)[C@H](CCC(N)=O)NC(=O)[C@H](CCCNC(=N)N)NC(=O)[C@H](CC(C)C)NC(=O)CNC(=O)[C@H](Cc1c[nH]c2ccccc12)NC(=O)CNC(=O)[C@@H]1CSSC[C@@H]2NC(=O)[C@H](CC(=O)O)NC(=O)[C@H](CC(=O)O)NC(=O)[C@H](Cc3c[nH]cn3)NC(=O)[C@H]([C@@H](C)O)NC(=O)[C@H](CCCCN)NC(=O)[C@@H]3CSSC[C@H](NC(=O)[C@H]([C@@H](C)O)NC(=O)[C@H](CCC(N)=O)NC(=O)[C@H](CSSC[C@H](NC(=O)[C@@H](NC(=O)[C@@H]4CCCN4C(=O)[C@H](CC(=O)O)NC(=O)[C@H](C)NC(=O)[C@@H](N)Cc4c[nH]cn4)[C@@H](C)CC)C(=O)N[C@@H](CC(N)=O)C(=O)N[C@@H](CCCCN)C(=O)N4CCC[C@H]4C(=O)N3)NC(=O)[C@H](Cc3ccccc3)NC(=O)[C@H](Cc3c[nH]c4ccccc34)NC(=O)[C@H](C)NC(=O)CNC(=O)[C@H](CO)NC2=O)C(=O)N[C@@H](Cc2ccc(O)cc2)C(=O)N[C@@H](CC(C)C)C(=O)N[C@@H](C)C(=O)N[C@@H]([C@@H](C)O)C(=O)N[C@@H](Cc2c[nH]c3ccccc23)C(=O)N[C@@H](CO)C(=O)N1)C(=O)N[C@@H](CC(=O)O)C(N)=O` [Y27L] (H-HADPICNKPCKTHDDCSGAWFCQTCYLATWSCGWGLRQID-NH2; disulfide 6-22, 10-25, 16-32) gave an IC50 of 49.9 ± 3.8 nM.

For `CC[C@H](C)[C@H](NC(=O)[C@H](CCC(N)=O)NC(=O)[C@H](CCCNC(=N)N)NC(=O)[C@H](CC(C)C)NC(=O)CNC(=O)[C@H](Cc1c[nH]c2ccccc12)NC(=O)CNC(=O)[C@@H]1CSSC[C@@H]2NC(=O)[C@H](CC(=O)O)NC(=O)[C@H](CC(=O)O)NC(=O)[C@H](Cc3c[nH]cn3)NC(=O)[C@H]([C@@H](C)O)NC(=O)[C@H](CCCCN)NC(=O)[C@@H]3CSSC[C@H](NC(=O)[C@H]([C@@H](C)O)NC(=O)[C@H](CCC(N)=O)NC(=O)[C@H](CSSC[C@H](NC(=O)[C@@H](NC(=O)[C@@H]4CCCN4C(=O)[C@H](CC(=O)O)NC(=O)[C@H](C)NC(=O)[C@@H](N)Cc4c[nH]cn4)[C@@H](C)CC)C(=O)NCC(=O)N[C@@H](CO)C(=O)N[C@@H](CCC(N)=O)C(=O)N3)NC(=O)[C@H](Cc3ccccc3)NC(=O)[C@H](Cc3c[nH]c4ccccc34)NC(=O)[C@H](C)NC(=O)CNC(=O)[C@H](CO)NC2=O)C(=O)N[C@@H](Cc2ccc(O)cc2)C(=O)N[C@@H](Cc2ccc(O)cc2)C(=O)N[C@@H](C)C(=O)N[C@@H]([C@@H](C)O)C(=O)N[C@@H](Cc2c[nH]c3ccccc23)C(=O)N[C@@H](CO)C(=O)N1)C(=O)N[C@@H](CC(=O)O)C(N)=O` [1A8.L1.1] (H-HADPICGSQCKTHDDCSGAWFCQTCYYATWSCGWGLRQID-NH2; disulfide 6-22, 10-25, 16-32), inhibition was half-maximal at 2.3 ± 0.1 nM (IC50). Against the preceding compound, the IC50 is about 22-fold lower.

`CC[C@H](C)[C@H](NC(=O)[C@H](CCC(N)=O)NC(=O)[C@H](CCCNC(=N)N)NC(=O)[C@H](CC(C)C)NC(=O)CNC(=O)[C@H](Cc1c[nH]c2ccccc12)NC(=O)CNC(=O)[C@@H]1CSSC[C@@H]2NC(=O)[C@H](CC(=O)O)NC(=O)[C@H](CC(=O)O)NC(=O)[C@H](Cc3c[nH]cn3)NC(=O)[C@H]([C@@H](C)O)NC(=O)[C@H](CC(=O)O)NC(=O)[C@@H]3CSSC[C@H](NC(=O)[C@H]([C@@H](C)O)NC(=O)[C@H](CCC(N)=O)NC(=O)[C@H](CSSC[C@H](NC(=O)[C@@H](NC(=O)[C@@H]4CCCN4C(=O)[C@H](CC(=O)O)NC(=O)[C@H](C)NC(=O)[C@@H](N)Cc4c[nH]cn4)[C@@H](C)CC)C(=O)N[C@@H](CC(N)=O)C(=O)N[C@@H](CCCCN)C(=O)N4CCC[C@H]4C(=O)N3)NC(=O)[C@H](Cc3ccccc3)NC(=O)[C@H](Cc3c[nH]c4ccccc34)NC(=O)[C@H](C)NC(=O)CNC(=O)[C@H](CO)NC2=O)C(=O)N[C@@H](Cc2ccc(O)cc2)C(=O)N[C@@H](Cc2ccc(O)cc2)C(=O)N[C@@H](C)C(=O)N[C@@H]([C@@H](C)O)C(=O)N[C@@H](Cc2c[nH]c3ccccc23)C(=O)N[C@@H](CO)C(=O)N1)C(=O)N[C@@H](CC(=O)O)C(N)=O` [1A8.K11D] (H-HADPICNKPCDTHDDCSGAWFCQTCYYATWSCGWGLRQID-NH2; disulfide 6-22, 10-25, 16-32) displayed an IC50 of 1.2 ± 0.4 nM.

Regarding `CC[C@H](C)[C@H](NC(=O)[C@H](CCC(N)=O)NC(=O)[C@H](CCCNC(=N)N)NC(=O)[C@H](CC(C)C)NC(=O)CNC(=O)[C@H](Cc1c[nH]c2ccccc12)NC(=O)CNC(=O)[C@@H]1CSSC[C@@H]2NC(=O)[C@H](CC(=O)O)NC(=O)[C@H](CC(=O)O)NC(=O)[C@H](Cc3c[nH]cn3)NC(=O)[C@H]([C@@H](C)O)NC(=O)[C@H](CCCCN)NC(=O)[C@@H]3CSSC[C@H](NC(=O)[C@H]([C@@H](C)O)NC(=O)[C@H](CCC(N)=O)NC(=O)[C@H](CSSC[C@H](NC(=O)[C@@H](NC(=O)[C@@H]4CCCN4C(=O)[C@H](CC(=O)O)NC(=O)[C@H](C)NC(=O)[C@@H](N)Cc4c[nH]cn4)[C@@H](C)CC)C(=O)N[C@@H](CC(N)=O)C(=O)N[C@@H](CCCCN)C(=O)N4CCC[C@H]4C(=O)N3)NC(=O)[C@H](Cc3ccccc3)NC(=O)[C@H](Cc3c[nH]c4ccccc34)NC(=O)[C@H](C)NC(=O)CNC(=O)[C@H](CO)NC2=O)C(=O)N[C@@H](Cc2ccc(O)c(Cl)c2)C(=O)N[C@@H](Cc2ccc(O)cc2)C(=O)N[C@@H](C)C(=O)N[C@@H]([C@@H](C)O)C(=O)N[C@@H](Cc2c[nH]c3ccccc23)C(=O)N[C@@H](CO)C(=O)N1)C(=O)N[C@@H](CC(=O)O)C(N)=O` [1A8.Y26Y(3Cl)] (H-HADPICNKPCKTHDDCSGAWFCQTC[Tyr(3-Cl)]YATWSCGWGLRQID-NH2; disulfide 6-22, 10-25, 16-32), the 50% inhibitory concentration (IC50) came out at 2.4 ± 0.3 nM.

`CC[C@H](C)[C@H](NC(=O)[C@H](CCC(N)=O)NC(=O)[C@H](CCCNC(=N)N)NC(=O)[C@H](CC(C)C)NC(=O)CNC(=O)[C@H](Cc1c[nH]c2ccccc12)NC(=O)CNC(=O)[C@@H]1CSSC[C@@H]2NC(=O)[C@H](CC(=O)O)NC(=O)[C@H](CC(=O)O)NC(=O)[C@H](Cc3c[nH]cn3)NC(=O)[C@H]([C@@H](C)O)NC(=O)[C@H](CCCCN)NC(=O)[C@@H]3CSSC[C@H](NC(=O)[C@H]([C@@H](C)O)NC(=O)[C@H](CCC(N)=O)NC(=O)[C@H](CSSC[C@H](NC(=O)[C@@H](NC(=O)[C@@H]4CCCN4C(=O)[C@H](CC(=O)O)NC(=O)[C@H](C)NC(=O)[C@@H](N)Cc4c[nH]cn4)[C@@H](C)CC)C(=O)N[C@@H](CC(N)=O)C(=O)N[C@@H](CCCCN)C(=O)N4CCC[C@H]4C(=O)N3)NC(=O)[C@H](Cc3ccccc3)NC(=O)[C@H](Cc3c[nH]c4ccccc34)NC(=O)[C@H](C)NC(=O)CNC(=O)[C@H](CO)NC2=O)C(=O)N[C@@H](Cc2ccc(O)cc2)C(=O)N[C@@H](Cc2ccc(O)cc2)C(=O)N[C@@H](C)C(=O)N[C@@H](CC(N)=O)C(=O)N[C@@H](Cc2c[nH]c3ccccc23)C(=O)N[C@@H](CO)C(=O)N1)C(=O)N[C@@H](CC(=O)O)C(N)=O` [1A8.L5.1] (H-HADPICNKPCKTHDDCSGAWFCQTCYYANWSCGWGLRQID-NH2; disulfide 6-22, 10-25, 16-32) displayed a 50% inhibitory concentration (IC50) of 1 ± 0.1 nM.

Consider `CC[C@H](C)[C@H](NC(=O)[C@H](CCC(N)=O)NC(=O)[C@H](CCCNC(=N)N)NC(=O)[C@H](CC(C)C)NC(=O)CNC(=O)[C@H](Cc1c[nH]c2ccccc12)NC(=O)CNC(=O)[C@@H]1CSSC[C@@H]2NC(=O)[C@H](CC(=O)O)NC(=O)[C@H](CC(=O)O)NC(=O)[C@H](Cc3c[nH]cn3)NC(=O)[C@H]([C@@H](C)O)NC(=O)[C@H](CCC(=O)O)NC(=O)[C@@H]3CSSC[C@H](NC(=O)[C@H]([C@@H](C)O)NC(=O)[C@H](CCC(N)=O)NC(=O)[C@H](CSSC[C@H](NC(=O)[C@@H](NC(=O)[C@@H]4CCCN4C(=O)[C@H](CC(=O)O)NC(=O)[C@H](C)NC(=O)[C@@H](N)Cc4c[nH]cn4)[C@@H](C)CC)C(=O)N[C@@H](CC(N)=O)C(=O)N[C@@H](CCCCN)C(=O)N4CCC[C@H]4C(=O)N3)NC(=O)[C@H](Cc3ccccc3)NC(=O)[C@H](Cc3c[nH]c4ccccc34)NC(=O)[C@H](C)NC(=O)CNC(=O)[C@H](CO)NC2=O)C(=O)N[C@@H](Cc2ccc(O)cc2)C(=O)N[C@@H](Cc2ccc(O)cc2)C(=O)N[C@@H](C)C(=O)N[C@@H]([C@@H](C)O)C(=O)N[C@@H](Cc2c[nH]c3ccccc23)C(=O)N[C@@H](CO)C(=O)N1)C(=O)N[C@@H](CC(=O)O)C(N)=O` [1A8.K11E] (H-HADPICNKPCETHDDCSGAWFCQTCYYATWSCGWGLRQID-NH2; disulfide 6-22, 10-25, 16-32), for which the IC50 was 1 ± 0.3 nM.
